Source: patent publication US4537774A, “Hot-water extracts of neem bark” (priority 1980, dated 1985)
Values after ≈ are worked out from the molar mass of the structure shown. Starred links: 1 amine or outer side, 2 acyl side, 3 side chain; linkers in the order of their positions; H or OH if unused. Positions of bridges follow the written chain, without caps; N, C: chain ends. Non-standard residues stand in square brackets, D forms with d. Residues, ends and D or L forms follow the SMILES beside them. Chains are numbered I, II in the order given. Actinocin(9to1) = Cc1c2oc3c(C)ccc(C(=O)[*:1])c3nc-2c(C(=O)[*:2])c(N)c1=O; NMeV = CN[C@H](C(=O)O)C(C)C; Sar = CNCC(=O)O

Experiments:
[1] = tested on: sarcoma 180 solid tumor; test: Effects on sarcoma 180 solid tumor (Test IV); format: in vivo, mouse; settings: for Rating / T/C (%): Table IV; for T/C (%): tumor weight ratio
Protocol: Test materials were prepared in the same manner as in Test III under (1).
A cell suspension containing 1×10^8 cells per ml. was prepared in the same way as in Test III under (2). Four week old-ICR mice was innoculated subcutaneously on the back with 0.1 ml. of the suspension by means of a syringe.
As in Test III under (3), a group of 6 animals was used for each concentration of each test material.
Grown tumor tissue was resected on the […] of the tumor cell transplantation and weighed. An average for the group of 6 animals was taken for the evaluation. The effect was evaluated on the basis of ratio of the average weight for the treated animals to that of the control animals (T/C). […] Ratios (T/C) of 100-71% were rated ineffective (-), of 70-51% plus 1 (+), of 50-21% plus 2 (++), and of 20-0% plus 3 (+++).
(§1) The neem extracts produced in the above examples were tested for effects on sarcoma 180 ascites and solid tumors according to the methods described in the aforementioned Tests.

[2] = tested on: mouse L-5178Y cells; test: Effects on mouse L-5178Y cells (Test II); format: cell-based
Protocol: A medium containing 1×10^5 cells/ml. was prepared using mouse L-5178Y cells cultivated on RPMI-1640 medium containing 10% fetal bovine serum for 3 days. The medium was placed in a 96-well U-type microplate in an amount of 50 μl. per well.
A portion of the test material, which was one of the extracts according to the invention described in the above examples, was dissolved in the medium to a final concentration in the medium as shown in Table II below. The amount of the solution per well was 50 μl. The test material thus prepared was incubated in a carbon-dioxide incubator at 37° C. for 2 days. After completion of the incubation, the cells were collected and counted well by well, and the cell counts were compared with cell count of control which contained no test material. The cell count of control was approximately 8.6×10^5 /ml. In order to confirm the effects of the test materials, the same test was done with mitomycin C (MMC) or bleomycin (BLM). In the table below, T/C represents the ratio of count of the cells treated with the test material to that with no test material added. ID50 is the concentration of the test material required for decreasing concentration of the cells to 1/2 that of the control.

[3] = tested on: sarcoma 180 ascites tumor; test: Effects on sarcoma 180 ascites tumor (Test III); format: in vivo, mouse; settings: for Rating / T/C (%): Table III, i.p.; for T/C (%): TPCV ratio
Protocol: A portion of each of the extraction fractions was suspended or dissolved in 0.5% suspension of carboxymethylcellulose (CMC) in a phosphate buffer saline solution (PBS commercially available from GIBCO Laboratories, containing ca. 9.5 mM phosphate) to a predetermined concentration.
Mouse sarcoma 180 tumor cells which have been subcultivated intraperitoneally in ICR mice were drawn from the mouse together with the ascites and diluted with physiological saline solution to a cell count of 10^8 per ml. The tumor cell suspension thus prepared was transplanted by means of a syringe intraperitoneally into 4 week-old male ICR mice at a dose of 0.1 ml. Consequently, the cell count transplanted per mouse was 1×10^7.
The test material as prepared above was intraperitoneally administered at a dose of 0.1 ml. per mouse for 4 days once a day from the next day of the transplantation of mouse sarcoma 180 tumor cells. A group of 6 mice was employed for each concentration of each test material. […] As a control was administered the CMC-containing PBS as described above only in the same way as above. The dose is expressed as weight per kg. bodyweight of mouse.
On the 7th day of transplantation of the tumor cells bodyweight of each mouse was measured (X). Then, ascites was thoroughly drawn from the mouse, followed by measurement of the bodyweight (Y). X-Y is taken as the amount of ascites.
The drawn ascites was then introduced into a hematocrit tube and then centrifuged at 15,000 G for 5 minutes using a hematocrit rotor at a low temperature. There was thus made determination of the ascitocrit value, that is, proportion of the cells present in the ascites which corresponded to the hematocrit value in hematology. The value multiplied by volume of the ascites gives the volume of the cells present in the ascites. This is designated as total packed cell volume (TPCV).
Effect on the tumor was rated ineffective (-) when the TPCV ratio of the treated to the control (T/C) was 100-66%, plus 1 (+) when it was 65-41%, plus 2 (++) when it was 40-11%, and plus 3 (+++) when it was 10-0%.
as §1

[4] = dose 10 μg./kg. (so in the source)
[5] = dose 33 μg./kg. (so in the source)
[6] = dose 0.1 μg./kg. (so in the source)
[7] = Tables V/VII, mice, 1.5 mg./kg.
[8] = dose 0.5 μg./kg. (so in the source)
[9] = dose 1.5 μg./kg. (so in the source)
[10] = dose 20 μg./kg. (so in the source)

bleomycin [BLM]
Rating ([1]; dose 10 mg./kg.): ++ (of 50-21% plus 2 (++))
T/C (%) ([1]; dose 10 mg./kg.): 43.5%
ID50 ([2]; 37° C., 2 days): 7.8 µg/mL
Rating [3, 4]: +++ (plus 3 (+++) when it was 10-0%)
T/C (%) [3, 4]: 0%

O=P1(N(CCCl)CCCl)NCCCO1 (stereo not drawn) [CYP, cyclophosphamide]
Rating ([1]; dose 33 mg./kg.): +++ (of 20-0% plus 3 (+++))
T/C (%) ([1]; dose 33 mg./kg.): 0%
Rating [3, 5]: +++ (plus 3 (+++) when it was 10-0%)
T/C (%) [3, 5]: 0%

Cc1c2oc3c(C)ccc(C(=O)N[C@@H]4C(=O)N[C@H](C(C)C)C(=O)N5CCC[C@H]5C(=O)N(C)CC(=O)N(C)[C@@H](C(C)C)C(=O)O[C@@H]4C)c3nc-2c(C(=O)N[C@@H]2C(=O)N[C@H](C(C)C)C(=O)N3CCC[C@H]3C(=O)N(C)CC(=O)N(C)[C@@H](C(C)C)C(=O)O[C@@H]2C)c(N)c1=O [ACD, actinomycin D] (I: T[dV]P[Sar][NMeV] / II: T[dV]P[Sar][NMeV]; ester I:1-I:C, II:1-II:C; linker I:N-II:N via Actinocin(9to1))
Rating ([1]; dose 0.1 mg./kg.): - (Ratios (T/C) of 100-71% were rated ineffective (-))
T/C (%) ([1]; dose 0.1 mg./kg.): 102.4%
Rating [3, 6]: +++ (plus 3 (+++) when it was 10-0%)
T/C (%) [3, 6]: 0%

CO[C@@]12[C@H](COC(N)=O)C3=C(C(=O)C(C)=C(N)C3=O)N1C[C@@H]1N[C@@H]12 [MMC, mitomycin C]
Rating ([1]; dose 0.5 mg./kg.): - (Ratios (T/C) of 100-71% were rated ineffective (-))
T/C (%) ([1]; dose 0.5 mg./kg.): 71.0%
Rating ([1]; dose 1.5 mg./kg.): ++ (of 50-21% plus 2 (++))
T/C (%) ([1]; dose 1.5 mg./kg.): 32.5%
Solid tumor Rating [1, 7]: ++ (of 50-21% plus 2 (++))
Solid tumor T/C [1, 7]: 38.9
IC50 ([2]; Mus musculus, L5178Y, 48 h, read-out: ID50): 0.09 µg/mL (≈ 0.269 µM)
Rating [3, 8]: +++ (plus 3 (+++) when it was 10-0%)
T/C (%) [3, 8]: 0%
Rating [3, 9]: +++ (plus 3 (+++) when it was 10-0%)
T/C (%) [3, 9]: 0%
Ascites tumor Rating [3, 7]: +++ (plus 3 (+++) when it was 10-0%)
Ascites tumor T/C [3, 7]: 0

O=c1[nH]cc(F)c(=O)[nH]1 [Example 5-Fu, 5-fluorouracil]
Rating ([1]; dose 20 mg./kg.): + (of 70-51% plus 1 (+))
T/C (%) ([1]; dose 20 mg./kg.): 47.8%
Rating [3, 10]: +++ (plus 3 (+++) when it was 10-0%)
T/C (%) [3, 10]: 0%
